Results published in patent publication US20040038920A1, “Chlamydial peptides and their mimics in demyelinating disease” (priority 2003, published 2004).

Tests used:
Lewis rats = test: Induction of EAE in Lewis rats by immunization with peptide in CFA; format: in vivo, rat; settings: for EAE Incidence (# affected animals/total # animals injected) / EAE severity score (in parentheses): Table IV, dose not given; for EAE Severity (mean group severity, max. = 3.0) / EAE Incidence: Lewis rats; for EAE severity score (in parentheses): max. = 3.0; for Encephalitogenic activity in LEW rats (in words): peptide in CFA, s.c.
Experimental: Peptides were administered subcutaneously to LEW rats at 5 μg or 50 μg doses in the standard manner. Eight- to twelve-week-old female Lewis rats (purchased from Charles River, Raleigh, N.C.) were immunized subcutaneously at the hind footpad with the appropriate synthetic peptide, emulsified in complete Freund's adjuvant (CFA, Difco, Detroit, Mich.). […] Animals were followed for 21 days post-immunization. Hematoxylin-eosin-stained and toluidine blue-stained spinal cord sections from representative rats were examined for inflammatory cell infiltration and demyelination without knowledge of the group of origin.

[1] = tested on: T cells from rats immunized with the chlamydial peptide; test: T cell proliferation assay (3H-thymidine), Cpn0483-primed T cells; format: cell-based, rat; settings: for Proliferation of peptide-primed T cells in response to irrelevant peptide: specificity control, priming peptide not specified; for Proliferative response of Cpn0483-primed T cells to peptide: 96 hr culture with irradiated thymocytes as APCs, FIG. 3
Experimental: (§1) To further investigate the immunopathology underlying the clinical observations, T cells were isolated from the spleens of rats immunized with Cpn0483 or MBP68-86, and recall responses were assessed using standard T cell proliferation assays.
(§2) Briefly, splenocytes were isolated from peptide-primed rats, adherent cells were removed by culture on plastic Petri dishes, and T cells were isolated on T cell columns (Biotec, Edmonton, Canada). The T cells were cultured for 96 hr with irradiated (2000rad) syngeneic thymocytes as antigen presenting cells (APCs), and peptide, in 96-well flat-bottom microtiter plates. The cultures were pulsed with ^3H-thymidine (0.5 μCi/well) 18 hr prior to harvesting cells, and 3H-thymidine incorporation was measured in a liquid scintillation counter (Wallac 1450 Microbeta Plus, Gaithersburg, Md.). Cultures were run in quadruplicate and each experiment was repeated at least twice. Dose-response studies were performed using various peptides at differing concentrations, and representative results are presented.

[2] = tested on: syngeneic recipients (LEW rats); test: Transfer of EAE with peptide-activated spleen cells from Cpn0483-immunized rats; format: in vivo, rat; settings: Cpn0483-primed spleen cells activated in vitro with the named peptide for 72 hr
Experimental: Both are characteristic pathological findings in the rat model of EAE (Zamvil et al., supra; Swanborg, 1995, supra) and are also observed in MS (Raine et al., 1999, supra). […] This feature is prominent in MS, but is not characteristic of acute EAE in LEW rats. When spleen cells were prepared from Cpn0483-immunized LEW rats with EAE and activated in vitro with the same peptide for 72 hr, they transferred clinical disease to 6 of 9 syngeneic recipients. Six of 9 recipients of Cpn-primed spleen cells activated with MBP68-86 also developed clinical EAE. Mononuclear infiltration was present in the spinal cords of recipients with clinical disease, as expected.

[3] = tested on: T cells derived from rats immunized with rat MBP68-86; test: T cell proliferation assay (3H-thymidine), rat MBP68-86-primed T cells; format: cell-based; settings: 96 hr culture with irradiated thymocytes as APCs, FIG. 4
Experimental: as §1, §2

[4] = tested on: short-term T cell line from Cpn0483 peptide-immunized rats; test: Cytokine secretion by short-term T cell line (ELISA); format: cell-based, rat; settings: activated for 72 hr with the chlamydial peptide
Source text: It has been well established that EAE in rodents is mediated by IFN-γ-producing Th1 inflammatory cells ((Zamvil et al., supra; Swanborg, supra; R. B. Smeltz et al., J. Immunol. 162, 829 (1999)).

[5] = 5 μg peptide s.c. in CFA, affected/total
[6] = 50 μg peptide s.c. in CFA, Table 2
[7] = 50 μg peptide s.c. in CFA, affected/total, Table 2
[8] = groups given either dose (5 μg or 50 μg)

Substance | EAE Incidence (# affected animals/total # animals injected) (Lewis rats) | EAE Incidence (Lewis rats; Incidence at 50 μg, Table 3) | EAE severity score (in parentheses) (Lewis rats) | Encephalitogenic activity in LEW rats (in words) (Lewis rats) | EAE Severity (mean group severity, max. = 3.0) (Lewis rats; [6]) | EAE Incidence (Lewis rats; [7]) | further results
HYGCLLPRNPRTED (listed as Chlamydia pneumoniae) [N4/C2 truncated] | 0/5 | – | – | – | – | – | –
MBP11-30: irrelevant nonencephalitogenic peptide (SAEKASKDGEIHRGEAGKKR; UniProt P04370 11-30, looked up, fragment) | – | – | – | – | – | – | Proliferation of peptide-primed T cells in response to irrelevant peptide [1]: lack of proliferation
MBP31-50: irrelevant nonencephalitogenic peptide (SVGKLSQTASEDSDVFGEAD; UniProt P04370 31-50, looked up, fragment) | – | – | – | – | – | – | Proliferation of peptide-primed T cells in response to irrelevant peptide [1]: lack of proliferation
NHYGCLLPRNPRTED (listed as Chlamydia pneumoniae) [N3/C2 truncated] | 0/5 | – | – | – | – | – | –
PNHYGCLLPRNPRTEDQN (listed as Chlamydia pneumoniae) [N2—truncated] | 0/5 | – | – | – | – | – | –
RFPNHYGCLLPRNPR (listed as Chlamydia pneumoniae) [C5—truncated] | 0/5 | – | – | – | – | – | –
RFPNHYGCLLPRNPRTEAQN (listed as Chlamydia pneumoniae) [Cpn D>A] | 9/10 | 9/10 | 2.7 | elicited severe EAE | – | – | EAE Severity (mean group severity, max. = 3.0) (Lewis rats; 50 μg, Table 3): 2.7
RFPNHYGCLLPRNPRTEDQN (listed as Chlamydia pneumoniae) [Cpn0483, 20-mer peptide near the C-terminus of C. pneumoniae protein Cpn0483] | 5/5 | 5/5 | 3.0 | encephalitogenic | 2.3 | 14/15 | Recipients developing clinical EAE after cell transfer [2]: 6 of 9; Proliferative response of Cpn0483-primed T cells to peptide [1]: respond to priming peptide; Proliferative response of Cpn0483-primed T cells to peptide ([1]; listed as chlamydial peptide): responded vigorously; Proliferative response of rat MBP68-86-primed T cells to peptide [3]: cross-reacted only minimally; Proliferative response of rat MBP68-86-primed T cells to peptide ([3]; listed as chlamydial peptide): cross-react; IFN-γ secreted [4]: 7,000 pg/ml; IL-4 production [4]: did not produce detectable IL-4; EAE Severity (mean group severity, max. = 3.0) (Lewis rats; 5 μg peptide s.c. in CFA): 1.8; EAE Incidence (Lewis rats; [5]): 3/5; EAE Severity (mean group severity, max. = 3.0) (Lewis rats; 50 μg, Table 3): 3.0; Demyelination in spinal cord sections (Lewis rats; Luxol fast blue-stained sections): Significant demyelination was not observed; Initial clinical signs of EAE, time post-immunization (Lewis rats; [8]): approximately 12 days; Persistence of clinical signs of EAE (Lewis rats; [8]): 3 to 6 days; Encephalitogenic activity in LEW rats (in words) (Lewis rats; listed as chlamydial peptide): as effective as guinea pig or rat MBP68-86 peptide in causing paralysis; Spinal cord inflammatory cell infiltration (histology) (Lewis rats; spinal cords of immunized rats): Extensive perivascular cuffing and parenchymal mononuclear cell infiltration
RFPNHYGSLLPRNPRTEDQN (listed as Chlamydia pneumoniae) [Cpn0483 C > S] | 8/10 | – | 2.4 | lack of effect | 2.2 | 4/5 | EAE Severity (mean group severity, max. = 3.0) (Lewis rats; 5 μg peptide s.c. in CFA): 2.4; EAE Incidence (Lewis rats; [5]): 4/5
YGCLLPRNPRTEDQN (listed as Chlamydia pneumoniae) [N5—truncated] | 0/5 | – | – | – | – | – | –
YGSLPQKSORTQAENPV (YGSLPQKSQRSQAENPV; listed as Rattus sp.) [MBP D>A, reference compound] | – | 0/10 | – | abolished encephalitogenic activity | – | – | –
YGSLPQKSQRSQDENPV (Guinea pig) [gp68-86, guinea pig myelin basic protein peptide 68-86, reference compound] | – | – | – | induced clinical disease with comparable severity and time course | 3.0 | 5/5 | –
YGSLPQKSQRTQDENPV (listed as Rattus sp.) [rat68-86, rat myelin basic protein peptide 68-86, reference compound] | 5/5 | 5/5 | 3.0 | induced clinical disease with comparable severity and time course | 2.7 | 10/10 | Recipients developing clinical EAE after cell transfer [2]: Six of 9; Proliferative response of Cpn0483-primed T cells to peptide ([1]; listed as rat MBP68-86): responded significantly; Proliferative response of Cpn0483-primed T cells to peptide ([1]; listed as ratMBP68-86): cross-react; Proliferative response of rat MBP68-86-primed T cells to peptide ([3]; listed as rat MBP68-86): proliferated vigorously; Proliferative response of rat MBP68-86-primed T cells to peptide ([3]; listed as ratMBP68-86): respond to priming peptide; EAE Severity (mean group severity, max. = 3.0) (Lewis rats; 50 μg, Table 3): 3.0
